The source made the active and inactive calls.
What was measured:
[1] = tested on: INS1; test: protection of INS-1E cells from cytokine death, dose response, ATP luminescence, dry powder (AID 488844); assay type: functional, cell-based; settings: Rattus norvegicus
[2] = tested on: INS1; test: protection from cytokine-driven beta-cell apoptosis, dose response, JC-1 fluorescence, INS-1E, dry powder, set 2 (AID 488867); assay type: functional, cell-based; settings: Rattus norvegicus
[3] = tested on: INS1; test: protection from cytokine-induced mitochondrial depolarization, dose response, cell-based, INS-1E, JC-1 fluorescence ratio, dry powder (AID 488931); assay type: functional; settings: Rattus norvegicus
[4] = cytotoxicity toward NIH3T3 fibroblasts, dose response, counter-screen, cell-based, ATP luminescence, mouse fibroblasts (AID 2010); assay type: functional;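 note: cells exposed to compound for about 90 hours before reading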
[5] = inhibitors of firefly luciferase expression or activity, dose response, H4 neuroglioma cells, luminescence (AID 1990); assay type: functional, cell-based
[6] = inhibitors of SNCA 5'UTR-driven reporter translation, confirmation, H4 neuroglioma cells, luminescence (AID 1988); assay type: functional, cell-based
[7] = Luminescence Cell-Based Dose Response HTS to Identify Inhibitors of 5'UTR Stem-Loop Driven Prion Protein mRNA Translation in H4 Neuroglioblastoma Cells. [Related pubchem assays: 1827 (Project Summary), 1813 (Primary HTS)]; assay type: functional
[8] = HEp-2 cell cytotoxicity, dose response, cytotoxicity control for RSV inhibitor project, HTS (AID 2410); assay type: functional; settings: human respiratory syncytial virus
[9] = inhibitors of intracellular T. cruzi replication, confirmation, NIH3T3 host cells, beta-gal luminescence (AID 2044); assay type: functional, cell-based;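 note: intracellular parasites grown in NIH/3T3 mouse fibroblasts as host cells; luminescent beta-galactosidase reporter signal from transgenic T. cruzi replicating inside host cells; inhibitors lower the luminescence signal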
[10] = target: DNA topoisomerase (Yersinia pestis, UniProt A0A2S9PM60); test: Y. pestis Topo-I inhibitors, cleavage product readout, dose response, biochemical, cherry-pick (AID 588525)
DNA topoisomerase, sequence (A0A2S9PM60 whole entry): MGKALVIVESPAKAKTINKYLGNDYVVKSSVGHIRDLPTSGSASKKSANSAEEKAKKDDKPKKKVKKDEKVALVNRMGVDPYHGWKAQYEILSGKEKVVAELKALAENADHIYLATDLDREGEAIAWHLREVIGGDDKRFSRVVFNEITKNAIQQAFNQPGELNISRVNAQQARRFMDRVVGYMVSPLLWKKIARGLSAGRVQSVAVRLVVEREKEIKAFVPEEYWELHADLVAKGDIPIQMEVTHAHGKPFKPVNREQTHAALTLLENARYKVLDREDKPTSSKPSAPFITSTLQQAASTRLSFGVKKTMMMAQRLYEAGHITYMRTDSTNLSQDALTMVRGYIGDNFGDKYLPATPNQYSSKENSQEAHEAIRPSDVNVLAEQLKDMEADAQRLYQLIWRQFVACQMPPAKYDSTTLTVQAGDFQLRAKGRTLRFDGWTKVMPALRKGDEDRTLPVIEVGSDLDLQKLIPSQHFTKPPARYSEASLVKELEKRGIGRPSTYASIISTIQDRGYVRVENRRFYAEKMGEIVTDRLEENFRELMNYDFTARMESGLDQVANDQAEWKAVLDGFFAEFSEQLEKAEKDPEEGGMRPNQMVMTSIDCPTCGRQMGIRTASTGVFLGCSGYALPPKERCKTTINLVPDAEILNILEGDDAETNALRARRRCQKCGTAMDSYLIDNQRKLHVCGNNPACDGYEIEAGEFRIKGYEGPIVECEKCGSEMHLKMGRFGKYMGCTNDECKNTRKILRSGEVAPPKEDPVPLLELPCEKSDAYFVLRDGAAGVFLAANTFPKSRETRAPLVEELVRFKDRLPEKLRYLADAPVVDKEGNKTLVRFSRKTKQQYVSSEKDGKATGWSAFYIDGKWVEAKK

[11] = target: Hexokinase-1 (Homo sapiens, UniProt P19367); test: HK1 enzyme inhibition by HKDC1 hits, SAR follow-up, selectivity assay for HKDC1 inhibitor project, biochemical, set 2, resazurin fluorescence coupled readout (AID 588356); assay type: functional
[12] = target: T1, Hexokinase HKDC1 (Homo sapiens, UniProt Q2TB90); test: HKDC1 hexokinase inhibitors, SAR follow-up, biochemical, set 2 (AID 588355); assay type: functional
T1 sequence (Q2TB90 whole entry): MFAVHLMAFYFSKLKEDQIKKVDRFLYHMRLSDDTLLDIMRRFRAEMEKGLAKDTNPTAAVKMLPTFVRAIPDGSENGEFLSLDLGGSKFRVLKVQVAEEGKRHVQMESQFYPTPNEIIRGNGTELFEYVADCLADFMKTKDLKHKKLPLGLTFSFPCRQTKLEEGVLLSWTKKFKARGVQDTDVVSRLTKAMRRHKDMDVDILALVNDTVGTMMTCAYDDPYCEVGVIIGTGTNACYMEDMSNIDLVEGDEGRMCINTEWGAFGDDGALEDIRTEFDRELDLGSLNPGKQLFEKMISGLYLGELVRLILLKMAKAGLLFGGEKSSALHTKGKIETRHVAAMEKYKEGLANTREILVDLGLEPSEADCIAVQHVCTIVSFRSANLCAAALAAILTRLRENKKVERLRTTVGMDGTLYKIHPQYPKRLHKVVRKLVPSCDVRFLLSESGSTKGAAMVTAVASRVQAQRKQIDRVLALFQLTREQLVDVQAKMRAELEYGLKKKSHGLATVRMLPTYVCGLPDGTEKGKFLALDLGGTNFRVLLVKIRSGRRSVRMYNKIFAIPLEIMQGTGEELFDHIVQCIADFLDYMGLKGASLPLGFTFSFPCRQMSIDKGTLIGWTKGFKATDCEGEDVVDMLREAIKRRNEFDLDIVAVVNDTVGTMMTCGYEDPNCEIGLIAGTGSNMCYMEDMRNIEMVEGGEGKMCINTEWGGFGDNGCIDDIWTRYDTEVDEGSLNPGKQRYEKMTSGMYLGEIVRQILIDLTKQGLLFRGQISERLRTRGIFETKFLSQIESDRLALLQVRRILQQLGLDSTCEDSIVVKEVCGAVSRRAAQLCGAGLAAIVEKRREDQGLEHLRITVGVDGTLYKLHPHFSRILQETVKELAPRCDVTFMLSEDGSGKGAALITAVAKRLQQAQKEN

[13] = target: T1, Hexokinase HKDC1; test: HKDC1 hexokinase inhibitors, dose response, biochemical, W721R variant (AID 504729); assay type: functional
[14] = target: T2, Replicative DNA helicase DnaB (Mycobacterium tuberculosis, UniProt P9WMR3); test: DnaB intein splicing inhibitors, dose response, biochemical, cell-free fluorescence (AID 449749); assay type: functional
T2 sequence (P9WMR3 whole entry): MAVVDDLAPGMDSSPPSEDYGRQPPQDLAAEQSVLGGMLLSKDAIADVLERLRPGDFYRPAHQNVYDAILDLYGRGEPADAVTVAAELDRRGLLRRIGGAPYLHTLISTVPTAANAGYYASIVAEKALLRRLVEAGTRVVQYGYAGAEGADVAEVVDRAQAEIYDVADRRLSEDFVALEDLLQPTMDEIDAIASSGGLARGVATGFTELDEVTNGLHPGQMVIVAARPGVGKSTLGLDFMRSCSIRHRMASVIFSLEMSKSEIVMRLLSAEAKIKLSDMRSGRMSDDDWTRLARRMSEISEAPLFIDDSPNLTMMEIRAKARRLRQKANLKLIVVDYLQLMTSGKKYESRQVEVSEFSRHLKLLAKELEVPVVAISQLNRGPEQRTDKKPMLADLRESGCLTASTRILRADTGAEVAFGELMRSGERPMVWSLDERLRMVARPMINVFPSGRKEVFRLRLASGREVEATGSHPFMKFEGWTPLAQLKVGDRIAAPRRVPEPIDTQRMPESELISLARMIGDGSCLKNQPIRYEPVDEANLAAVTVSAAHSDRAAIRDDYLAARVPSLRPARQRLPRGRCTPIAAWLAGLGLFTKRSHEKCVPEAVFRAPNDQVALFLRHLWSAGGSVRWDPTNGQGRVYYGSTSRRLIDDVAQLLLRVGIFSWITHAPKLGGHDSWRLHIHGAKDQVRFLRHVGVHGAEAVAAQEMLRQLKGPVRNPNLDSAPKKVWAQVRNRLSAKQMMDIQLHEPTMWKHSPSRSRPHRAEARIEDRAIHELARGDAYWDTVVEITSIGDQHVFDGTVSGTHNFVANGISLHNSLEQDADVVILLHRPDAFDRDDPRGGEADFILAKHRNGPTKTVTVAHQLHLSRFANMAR

[15] = target: T3, Protein RecA (Mycobacterium tuberculosis, UniProt P9WHJ3); test: Fluorescence Cell-Free Homogeneous Dose Retest to Identify Inhibitors of RecA-Intein Splicing Activity. [Related pubchem assays (depositor defined):AID2097, AID2223, AID489010, AID492950]; assay type: functional
T3 sequence (P9WHJ3 whole entry): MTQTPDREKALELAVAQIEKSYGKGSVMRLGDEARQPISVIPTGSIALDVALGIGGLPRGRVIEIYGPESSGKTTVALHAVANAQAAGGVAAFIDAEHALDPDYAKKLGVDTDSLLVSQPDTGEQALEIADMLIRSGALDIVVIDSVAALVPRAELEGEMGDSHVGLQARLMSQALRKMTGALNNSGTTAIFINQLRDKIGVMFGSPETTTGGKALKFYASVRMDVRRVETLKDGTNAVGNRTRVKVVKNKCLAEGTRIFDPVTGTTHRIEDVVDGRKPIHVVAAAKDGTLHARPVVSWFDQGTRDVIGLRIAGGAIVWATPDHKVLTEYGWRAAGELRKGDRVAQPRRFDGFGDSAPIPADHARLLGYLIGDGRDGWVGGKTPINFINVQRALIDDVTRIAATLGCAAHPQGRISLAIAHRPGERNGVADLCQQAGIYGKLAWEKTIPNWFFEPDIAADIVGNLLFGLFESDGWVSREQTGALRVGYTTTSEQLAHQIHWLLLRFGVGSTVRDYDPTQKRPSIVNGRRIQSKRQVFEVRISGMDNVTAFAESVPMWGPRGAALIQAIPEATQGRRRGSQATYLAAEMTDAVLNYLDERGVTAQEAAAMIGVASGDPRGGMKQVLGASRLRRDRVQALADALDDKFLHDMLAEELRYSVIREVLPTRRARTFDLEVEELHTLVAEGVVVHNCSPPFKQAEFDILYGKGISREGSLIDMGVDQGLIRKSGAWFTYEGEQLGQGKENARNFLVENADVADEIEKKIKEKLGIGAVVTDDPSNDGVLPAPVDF

[16] = target: Phospholipase D1 (Homo sapiens, UniProt Q13393); test: PLD1 inhibitor potency in cells, dose response (AID 602151); assay type: functional;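 note: cellular PLD1 assay in Calu-1 cells stimulated with PMA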
[17] = target: Phospholipase D2 (Homo sapiens, UniProt O14939); test: PLD2 inhibitor potency in cells, dose response (AID 602147); assay type: functional;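 note: cellular assay in HEK293 cells overexpressing GFP-tagged PLD2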
Phospholipase D2, sequence (O14939 whole entry): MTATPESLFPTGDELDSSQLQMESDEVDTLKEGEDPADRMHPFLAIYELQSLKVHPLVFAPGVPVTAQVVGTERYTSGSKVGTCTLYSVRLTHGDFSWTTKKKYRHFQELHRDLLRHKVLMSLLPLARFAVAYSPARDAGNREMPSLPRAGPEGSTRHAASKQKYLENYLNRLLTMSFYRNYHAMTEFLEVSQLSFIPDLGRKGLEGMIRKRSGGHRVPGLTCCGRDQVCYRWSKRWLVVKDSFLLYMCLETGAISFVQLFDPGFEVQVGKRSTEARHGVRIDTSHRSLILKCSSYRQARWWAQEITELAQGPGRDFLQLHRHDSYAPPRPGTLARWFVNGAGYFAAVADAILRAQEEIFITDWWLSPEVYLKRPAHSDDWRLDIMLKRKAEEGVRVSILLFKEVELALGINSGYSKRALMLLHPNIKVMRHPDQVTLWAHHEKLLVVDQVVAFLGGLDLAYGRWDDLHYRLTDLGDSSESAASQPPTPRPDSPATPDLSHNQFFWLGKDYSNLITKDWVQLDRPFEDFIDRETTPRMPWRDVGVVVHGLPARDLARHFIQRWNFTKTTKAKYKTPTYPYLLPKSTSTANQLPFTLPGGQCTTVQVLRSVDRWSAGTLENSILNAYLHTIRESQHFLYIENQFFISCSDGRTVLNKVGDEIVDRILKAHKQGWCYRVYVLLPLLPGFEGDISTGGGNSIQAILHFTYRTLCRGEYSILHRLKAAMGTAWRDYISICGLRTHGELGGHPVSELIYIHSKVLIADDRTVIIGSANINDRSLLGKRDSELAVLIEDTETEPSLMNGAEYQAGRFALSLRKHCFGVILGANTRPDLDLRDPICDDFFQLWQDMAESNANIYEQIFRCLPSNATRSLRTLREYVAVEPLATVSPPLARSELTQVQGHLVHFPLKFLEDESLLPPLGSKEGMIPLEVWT

[18] = tested on: HEK293; test: HEK cell cytotoxicity by LDH release, dose response, cytotoxicity control for IDE activator project, fluorescence, HEK cells (AID 588440); assay type: functional, cell-based; settings: Homo sapiens;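 note: cytotoxicity by LDH release measuring loss of membrane integrity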
[19] = target: T4, Insulin-degrading enzyme (Homo sapiens, UniProt P14735); test: activators of recombinant IDE enzyme, dose response, counter-screen for IDE activator project, biochemical, fluorescence polarization (AID 588681)
T4 sequence (P14735 whole entry): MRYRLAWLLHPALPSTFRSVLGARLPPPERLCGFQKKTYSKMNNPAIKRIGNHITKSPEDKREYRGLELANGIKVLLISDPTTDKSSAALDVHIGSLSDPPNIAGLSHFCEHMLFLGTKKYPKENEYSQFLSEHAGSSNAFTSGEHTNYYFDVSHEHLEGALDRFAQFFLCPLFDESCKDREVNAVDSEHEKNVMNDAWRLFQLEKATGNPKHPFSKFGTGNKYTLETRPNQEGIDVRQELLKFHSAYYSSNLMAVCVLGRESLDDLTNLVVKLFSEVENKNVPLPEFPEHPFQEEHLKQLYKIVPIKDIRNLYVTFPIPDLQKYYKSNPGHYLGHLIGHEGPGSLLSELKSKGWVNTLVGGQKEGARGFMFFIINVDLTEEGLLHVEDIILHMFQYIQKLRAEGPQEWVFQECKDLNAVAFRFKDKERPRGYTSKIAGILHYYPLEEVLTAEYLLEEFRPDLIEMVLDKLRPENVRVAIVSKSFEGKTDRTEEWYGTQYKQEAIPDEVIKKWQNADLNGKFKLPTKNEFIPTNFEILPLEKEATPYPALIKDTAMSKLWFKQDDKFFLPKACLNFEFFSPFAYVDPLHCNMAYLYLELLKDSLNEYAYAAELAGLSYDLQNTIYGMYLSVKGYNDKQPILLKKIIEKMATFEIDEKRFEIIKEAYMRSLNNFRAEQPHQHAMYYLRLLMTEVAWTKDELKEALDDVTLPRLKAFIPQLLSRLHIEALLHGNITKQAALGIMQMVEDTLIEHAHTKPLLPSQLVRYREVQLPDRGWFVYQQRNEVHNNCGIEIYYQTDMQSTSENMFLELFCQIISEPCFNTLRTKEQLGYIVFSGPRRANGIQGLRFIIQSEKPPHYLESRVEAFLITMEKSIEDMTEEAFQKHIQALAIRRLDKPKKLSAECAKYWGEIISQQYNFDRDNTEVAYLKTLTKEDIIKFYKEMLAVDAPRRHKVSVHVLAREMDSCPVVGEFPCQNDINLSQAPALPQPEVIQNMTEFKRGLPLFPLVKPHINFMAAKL

[20] = tested on: HEK293; test: optical interference in Abeta FP readout, dose response, artefact control for IDE activator project, biochemical, fluorescence polarization (AID 588442); assay type: functional, cell-based; settings: Homo sapiens
[21] = target: T4, Insulin-degrading enzyme; test: activators of endogenous IDE in HEK cells, dose response, cell-based, fluorescence polarization (AID 588439); assay type: functional
[22] = target: Beta-lactamase (Pseudomonas aeruginosa, UniProt Q79MP6);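 note: biochemical dose-response test of metallo-beta-lactamase enzyme inhibition, read out by epi-absorbance; purified recombinant IMP-1 metallo-beta-lactamase with nitrocefin as substrate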
Beta-lactamase (Pseudomonas aeruginosa, UniProt Q79MP6), sequence (Q79MP6 whole entry): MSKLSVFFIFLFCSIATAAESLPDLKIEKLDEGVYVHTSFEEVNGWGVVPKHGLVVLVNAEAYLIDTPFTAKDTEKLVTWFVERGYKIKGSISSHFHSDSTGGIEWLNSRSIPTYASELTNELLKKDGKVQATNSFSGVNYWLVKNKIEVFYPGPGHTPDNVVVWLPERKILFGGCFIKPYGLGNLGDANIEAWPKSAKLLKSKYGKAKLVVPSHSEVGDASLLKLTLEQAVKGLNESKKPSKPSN

[23] = target: ORF 73 (Human herpesvirus 8, UniProt O40947); test: inhibitors of C-LANA binding to LBS DNA, dose response, biochemical, fluorescence polarization, cherry-picked samples (AID 504725); set-up: species or system Human gammaherpesvirus 8;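 note: fluorescence polarization of a labeled DNA duplex reporting LANA DNA binding; potency is for inhibitors that block LANA binding to the DNA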
[24] = target: Beta-lactamase (Salmonella choleraesuis (strain SC-B67), UniProt Q5J463)
Beta-lactamase (Salmonella choleraesuis (strain SC-B67), UniProt Q5J463), sequence (Q5J463 whole entry): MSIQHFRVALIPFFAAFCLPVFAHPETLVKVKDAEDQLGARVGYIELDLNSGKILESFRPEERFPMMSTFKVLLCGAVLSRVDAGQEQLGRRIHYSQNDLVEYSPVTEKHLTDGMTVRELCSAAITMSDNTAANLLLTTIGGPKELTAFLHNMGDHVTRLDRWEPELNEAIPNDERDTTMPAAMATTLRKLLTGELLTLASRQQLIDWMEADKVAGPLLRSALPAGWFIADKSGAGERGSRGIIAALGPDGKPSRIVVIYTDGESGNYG

[25] = target: Keap1/Nrf2 (Homo sapiens, UniProt Q14145); test: Keap1-Nrf2 protein-protein interaction inhibitors, dose response, biochemical, fluorescence polarization, cherry-picked samples (AID 588683)
Keap1/Nrf2, sequence (Q16236 whole entry): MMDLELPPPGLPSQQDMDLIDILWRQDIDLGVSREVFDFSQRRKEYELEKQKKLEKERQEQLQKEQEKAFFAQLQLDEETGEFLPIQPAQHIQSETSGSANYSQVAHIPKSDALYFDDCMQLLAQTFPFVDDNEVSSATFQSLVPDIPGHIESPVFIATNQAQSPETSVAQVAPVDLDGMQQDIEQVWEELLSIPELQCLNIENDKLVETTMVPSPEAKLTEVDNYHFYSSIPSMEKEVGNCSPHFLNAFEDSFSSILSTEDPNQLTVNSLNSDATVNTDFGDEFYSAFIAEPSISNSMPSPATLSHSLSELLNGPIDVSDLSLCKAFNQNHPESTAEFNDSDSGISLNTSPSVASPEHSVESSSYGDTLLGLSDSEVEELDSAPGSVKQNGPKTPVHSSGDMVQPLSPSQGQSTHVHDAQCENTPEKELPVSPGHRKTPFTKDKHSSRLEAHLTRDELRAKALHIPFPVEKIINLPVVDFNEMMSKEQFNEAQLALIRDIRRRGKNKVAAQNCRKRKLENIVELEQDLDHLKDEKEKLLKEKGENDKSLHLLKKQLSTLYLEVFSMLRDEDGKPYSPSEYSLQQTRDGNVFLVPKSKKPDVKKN
Keap1/Nrf2, sequence (Q14145 whole entry): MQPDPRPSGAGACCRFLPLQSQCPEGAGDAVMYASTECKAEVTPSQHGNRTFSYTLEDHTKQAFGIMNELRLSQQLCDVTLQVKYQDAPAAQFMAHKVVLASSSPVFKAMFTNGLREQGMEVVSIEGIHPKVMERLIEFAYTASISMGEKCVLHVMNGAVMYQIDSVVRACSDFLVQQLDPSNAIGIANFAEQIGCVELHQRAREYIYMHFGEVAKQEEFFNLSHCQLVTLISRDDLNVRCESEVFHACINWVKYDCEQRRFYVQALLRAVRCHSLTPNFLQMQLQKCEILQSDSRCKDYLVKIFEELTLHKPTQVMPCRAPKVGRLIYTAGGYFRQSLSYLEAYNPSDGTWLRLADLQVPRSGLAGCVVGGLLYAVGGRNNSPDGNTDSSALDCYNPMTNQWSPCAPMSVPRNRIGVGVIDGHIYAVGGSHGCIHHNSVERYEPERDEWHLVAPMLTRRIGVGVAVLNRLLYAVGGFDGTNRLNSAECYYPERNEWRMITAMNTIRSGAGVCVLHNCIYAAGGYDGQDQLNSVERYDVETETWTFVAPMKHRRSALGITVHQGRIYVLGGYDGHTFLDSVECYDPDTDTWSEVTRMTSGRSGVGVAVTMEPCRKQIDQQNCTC

[26] = target: Voltage-gated inwardly rectifying potassium channel KCNH2 (Homo sapiens, UniProt Q12809); settings: Potency;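 note: confirmatory quantitative high-throughput screen measuring inhibition of hERG channel activity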

COc1ccc(S(=O)(=O)N(C)C[C@@H]2Oc3c(NC(=O)Nc4ccccc4)cccc3C(=O)N([C@@H](C)CO)C[C@H]2C)cc1
AC50 [1]: > 260 µM (inactive)
AC50 [2]: 58.9 µM (active)
AC50 [3]: 34.8 µM (active)

COc1ccc(-c2nc3c(c(=O)[nH]c(=O)n3Cc3ccccc3)n2Cc2ccccc2)cc1
EC50 [4]: > 60 µM (inconclusive)
EC50 [5]: 26.7 µM (active)
EC50 [6]: 17.7 µM (active)
EC50 [7]: > 120 µM (not active)
CC50 [8]: 7.31 µM (active)
EC50 [9]: 0.826 µM (active)
AC50 [10]: 7.41 µM (active)

CC(=O)NC1C(=O)N(CCN2CCOCC2)c2ccc(C)cc21 (configuration not stated)
IC50 [11]: > 80 µM (inactive)
IC50 [12]: 4.45 µM (active)
IC50 [13]: 4.71 µM (active)
AC50 [14]: 22.1 µM (active)
EC50 [15]: 8.53 µM (active)

O=C(NCCN1CCC2(CC1)C(=O)NCN2c1ccccc1)c1ncc(F)cc1F
IC50 [16]: 20 µM (active)
IC50 [17]: 5.4 µM (active)

CNc1ccc2c3c(cccc13)C(=O)N(C)C2=O
IC50 [18]: > 89.3 µM (inactive)
EC50 [19]: > 54.8 µM (inactive)
EC50 [20]: 6.57 µM (active)
EC50 [21]: > 54.8 µM (inactive)
IC50 [22]: 3.92 µM (active)
AC50 [23]: 0.588 µM (active)
IC50 [24]: 2.2 µM (active)
AC50 [25]: 0.399 µM (active)

CCCCOc1cc(CC2CNC(=O)N2)ccc1OC (configuration not stated) [RO-201724]
AC50 [26]: 3.55 µM (inconclusive)
CC50 [8]: 23.8 µM (active)

From ChEMBL document CHEMBL1201862, “PubChem BioAssay data set” (2004)
